The structures appear in SMILES notation.

The subject of this experiment is Plasmodium berghei. The experiment is described as follows: Luciferase/luciferin-expressing antifolate-resistant parasites were used to infect a culture of HepG2 cells that were pre-incubated with compounds. Infected hepatocytes emit light due to the luciferase reaction. Assay results are presented as the percent inhibition of light emission compared to control. […]. To be noted: sporozoite; for IC90: read-out: LUCIFERASE INFECTION ASSAY - IC90. It is filed as functional.

The mark [1] stands for this setting: read-out: LUCIFERASE INFECTION ASSAY - IC50.

Turning to `CCCNC(=O)CN1CCN(c2nc(-c3cccs3)nc3sc(C)c(C)c23)CC1`, the IC90 (commonly the point of the concentration-response curve where the effect stands at 90%) was above 10 µM. Where the note is “PBLUC_HILL_SLOPE 12.5, PBLUC_R_SQUARED 0.18, read-out: LUCIFERASE INFECTION ASSAY - IC50”, the half-inhibitory concentration (IC50) (commonly the concentration at which inhibition is half-maximal) was 9.45 µM.
On to `CC(C)(C)c1ccc(C(=O)Nc2cc(Cl)ccc2OC(=O)c2ccc(C(C)(C)C)cc2)cc1`, for which the IC90 was above 7.11 µM. Moreover, the IC50 (PBLUC_HILL_SLOPE 0.69, PBLUC_R_SQUARED 0.715, read-out: LUCIFERASE INFECTION ASSAY - IC50) was determined as 0.555 µM.
Consider `O=C(Nc1ccc(OC(F)(F)F)cc1)c1ccc(=O)n(Cc2ccc(Cl)cc2)c1`, for which the IC90 was above 7.81 µM. Besides, the IC50 (PBLUC_HILL_SLOPE 1.46, PBLUC_R_SQUARED 0.0131, read-out: LUCIFERASE INFECTION ASSAY - IC50) is 7.46 µM.
Regarding `CCc1ccc2nc(NC(=O)CN(C)C(=O)c3ccco3)sc2c1`, the concentration for an effect of 90% (IC90) is above 10 µM. For the same compound, under setting [1], the IC50 was above 10 µM.
For `Cc1cc(Oc2c(C)cccc2C)c2ccccc2n1`, the IC90 is above 12.5 µM. Besides, the IC50 (PBLUC_HILL_SLOPE 0.514, PBLUC_R_SQUARED 0.0638, read-out: LUCIFERASE INFECTION ASSAY - IC50) is above 12.5 µM.
For the compound `CC(C)N(C(=O)COC(=O)c1ccccc1-c1nc2ccccc2s1)c1ccccc1`, the concentration for an effect of 90% (IC90) was above 10 µM. For the same compound, for the setting “PBLUC_HILL_SLOPE 20.1, PBLUC_R_SQUARED 0.325, read-out: LUCIFERASE INFECTION ASSAY - IC50”, the IC50 came to 9.13 µM.
As to `COc1ccccc1CN1CCN2C(=O)[C@@H](Cc3ccc(O)cc3)NC(=O)[C@H]2C1`, the 90% effect concentration (IC90) was above 8.34 µM. Under “PBLUC_HILL_SLOPE 1.8, PBLUC_R_SQUARED 0.229, read-out: LUCIFERASE INFECTION ASSAY - IC50”, the IC50 was found to be 4.45 µM.
`CNC(=O)c1ccc(CN(C2CC2)S(=O)(=O)c2ccc(Br)s2)cc1`: the IC90 is above 10 µM. Besides, the IC50 (PBLUC_HILL_SLOPE 3.54, PBLUC_R_SQUARED 0.19, read-out: LUCIFERASE INFECTION ASSAY - IC50) worked out at 5.83 µM.
For the compound `FC(F)(F)c1cc(NCc2ccc(Cl)cc2)nc(-c2ccccn2)n1`, the 90% effect concentration (IC90) was above 9.05 µM. Besides, the IC50 (PBLUC_HILL_SLOPE 3.87, PBLUC_R_SQUARED 0.118, read-out: LUCIFERASE INFECTION ASSAY - IC50) came out at 5.66 µM.
For `Cc1cc(C(=O)CN2CCC(C(=O)Nc3ccc4c(c3)OCO4)CC2)c(C)n1Cc1cccs1`, the IC90 is above 10 µM. Under “FFLUC_HILL_SLOPE 9.45, FFLUC_R_SQUARED 0.378, read-out: LUCIFERASE INFECTION ASSAY - IC50”, the IC50 is above 10 µM.
For `CC(C)(C)c1ccc(-c2cnc3cnc(-c4ccc(C(=O)NCCO)cc4)cn23)cc1`, the IC90 is above 7.96 µM. Besides, the IC50 (PBLUC_HILL_SLOPE 23.2, PBLUC_R_SQUARED 0.508, read-out: LUCIFERASE INFECTION ASSAY - IC50) worked out at 7.27 µM.
Turning to `CN(Cc1nccn1C(F)F)c1ncnc2sccc12`, the IC90 is above 10 µM. For the same compound, the IC50 under setting [1] was above 10 µM.
As for `O=C(Nc1ccc2nc(Cc3ccccc3)nn2c1)NC1CCCCC1`, the 90% effect concentration (IC90) is 3.6 µM. Further, the IC50 (HEPG2TOX_HILL_SLOPE 5.83, HEPG2TOX_R_SQUARED 0.978, PBLUC_HILL_SLOPE 13.4, PBLUC_R_SQUARED 0.389, read-out: LUCIFERASE INFECTION ASSAY - IC50) stood at 3.05 µM.
For the compound `Cc1ccc(C)n1-c1nc2cc(C(=O)NC3CC3)ccc2s1`, the 90% effect concentration (IC90) amounted to 7.33 µM. For the same compound, the IC50 (PBLUC_HILL_SLOPE 2.39, PBLUC_R_SQUARED 0.619, read-out: LUCIFERASE INFECTION ASSAY - IC50) was 2.93 µM.
Consider `CC(=O)c1cccc(-c2cnc3ccc(-c4cccnc4)nn23)c1`, for which the IC90 amounted to 4.84 µM. The half-inhibitory concentration (IC50) (HEPG2TOX_HILL_SLOPE 1.81, HEPG2TOX_R_SQUARED 0.991, PBLUC_HILL_SLOPE 1.06, PBLUC_R_SQUARED 0.743, read-out: LUCIFERASE INFECTION ASSAY - IC50) came to 0.606 µM.
For `CCCCNC(=O)c1c(NC(=O)c2ccc(OC)cc2)nc2c(C)cccn12`, the 90% effect concentration (IC90) is above 8.67 µM. Under setting [1], the half-maximal inhibitory concentration (IC50) was above 8.67 µM.
For `CN(C)C(=O)CNC(=O)c1ccc(C(F)(F)F)cc1`, the IC90 was above 10 µM. Besides, the 50% inhibitory concentration (IC50) under setting [1] is above 10 µM.
With `Cc1c(C(=O)Nc2ccnn2Cc2ccccc2)cnn1C(C)(C)C`, the 90% effect concentration (IC90) was above 10 µM. Moreover, the IC50 (PBLUC_HILL_SLOPE 2.67, PBLUC_R_SQUARED 0.113, read-out: LUCIFERASE INFECTION ASSAY - IC50) was above 10 µM.
With `O=C1N(Cc2ccccc2)C(=O)C2(CCN(CC3CC=CCC3)CC2)N1CCc1ccccc1` (configuration not stated), the IC90 is above 7.21 µM. The half-maximal inhibitory concentration (IC50) (HEPG2TOX_HILL_SLOPE 1.57, HEPG2TOX_R_SQUARED 0.788, PBLUC_HILL_SLOPE 4.98, PBLUC_R_SQUARED 0.479, read-out: LUCIFERASE INFECTION ASSAY - IC50) came to 4.9 µM.
For `CCc1c(C)sc(NC(=O)c2c(-c3ccccc3)noc2C)c1C(=O)OC`, the 90% effect concentration (IC90) is above 8.58 µM. For the same compound, the 50% inhibitory concentration (IC50) (PBLUC_HILL_SLOPE 4.81, PBLUC_R_SQUARED 0.194, read-out: LUCIFERASE INFECTION ASSAY - IC50) turned out to be 5.61 µM.
`CN1CCN(C(c2ccccn2)c2c(-c3ccccc3)n(O)c3ccccc23)CC1` (configuration not stated): the IC90 was above 10 µM. The IC50 (FFLUC_HILL_SLOPE 1.05, FFLUC_R_SQUARED 0.622, read-out: LUCIFERASE INFECTION ASSAY - IC50) is above 10 µM.
As for `FC(F)(F)c1cccc(NC(S)=Nc2ccc(Cl)c(Cl)c2)c1`, the IC90 was above 9.04 µM. Besides, the half-maximal inhibitory concentration (IC50) under setting [1] is above 9.04 µM.
For the compound `COC(=O)c1ccc(CNC(=O)NCCN2c3ccccc3CCC2C)cc1` (configuration not stated), the IC90 stood at 3.88 µM. The IC50 (HEPG2TOX_HILL_SLOPE 2.63, HEPG2TOX_R_SQUARED 0.63, PBLUC_HILL_SLOPE 12, PBLUC_R_SQUARED 0.668, read-out: LUCIFERASE INFECTION ASSAY - IC50) came out at 3.23 µM.
`Cn1nc(C(C)(C)C)cc1NC(=O)Nc1cc(Cl)cc(Cl)c1`: the concentration for an effect of 90% (IC90) was above 9.67 µM. The concentration for half-maximal inhibition (IC50) under setting [1] was above 9.67 µM.
As for `CCOC(=O)c1c(CC(C)C)csc1NC(=O)CNc1ccc(-n2cnnn2)cc1`, the 90% effect concentration (IC90) was above 10 µM. Also, the half-maximal inhibitory concentration (IC50) (FFLUC_HILL_SLOPE 13, FFLUC_R_SQUARED 0.249, read-out: LUCIFERASE INFECTION ASSAY - IC50) was above 10 µM.
Turning to `CC(C)(C)OC(=O)NCc1ccc(C(=O)NNC(=O)c2ccccc2O)cc1`, the IC90 is above 10 µM. Under setting [1], the IC50 was above 10 µM.
For the compound `COc1ccc(-c2cnc3ccc(NCc4cccc(Cl)c4)nn23)cc1`, the IC90 was found to be 8.06 µM. The IC50 (HEPG2TOX_HILL_SLOPE 4.15, HEPG2TOX_R_SQUARED 0.863, PBLUC_HILL_SLOPE 14.2, PBLUC_R_SQUARED 0.0441, read-out: LUCIFERASE INFECTION ASSAY - IC50) amounted to 6.9 µM.
`CCOC(=O)c1ccc(Oc2c[nH]nc2-c2ccc(OC)cc2O)cc1`: the concentration for an effect of 90% (IC90) is above 9.31 µM. Also, under “FFLUC_HILL_SLOPE 1.78, FFLUC_R_SQUARED 0.28, read-out: LUCIFERASE INFECTION ASSAY - IC50”, the half-maximal inhibitory concentration (IC50) is above 9.31 µM.
Turning to `Cc1nn(Cc2ccccc2)c2sc(C(=O)Nc3nc4ccccc4[nH]3)cc12`, the concentration for an effect of 90% (IC90) came out at 0.562 µM. In addition, the IC50 (HEPG2TOX_HILL_SLOPE 0.737, HEPG2TOX_R_SQUARED 0.843, PBLUC_HILL_SLOPE 3.70, 1.65, PBLUC_R_SQUARED 0.424, 0.851, read-out: LUCIFERASE INFECTION ASSAY - IC50) is 0.229 µM.
Take `CN(C)c1cc(CNC(=O)c2cc3c(F)cccc3s2)ccn1`: the IC90 was determined as 7.57 µM. The concentration for half-maximal inhibition (IC50) (HEPG2TOX_HILL_SLOPE 10.4, HEPG2TOX_R_SQUARED 0.0222, PBLUC_HILL_SLOPE 5.26, PBLUC_R_SQUARED 0.456, read-out: LUCIFERASE INFECTION ASSAY - IC50) is 4.99 µM.
In the case of `Cn1cc(/C=C/C(=O)Nc2nc(-c3ccc4c(c3)OCCO4)cs2)cn1`, the concentration for an effect of 90% (IC90) was above 10 µM. Moreover, under setting [1], the half-inhibitory concentration (IC50) is 9.99 µM.
Turning to `CSc1nccc(-c2ccsc2)n1`, the concentration for an effect of 90% (IC90) is above 15.8 µM. The half-inhibitory concentration (IC50) (FFLUC_HILL_SLOPE 14.6, FFLUC_R_SQUARED 0.758, read-out: LUCIFERASE INFECTION ASSAY - IC50) is above 15.8 µM.
Take `O=C(NC1CC1)c1csc(C(O)c2cccc(Cl)c2)n1` (configuration not stated): the 90% effect concentration (IC90) was above 10 µM. Further, under setting [1], the IC50 amounted to 3.36 µM.
As to `CCC(C)NC(=O)c1c(NC(=O)c2cc(OC)cc(OC)c2)nc2ccc(C)cn12` (configuration not stated), the 90% effect concentration (IC90) is 2.79 µM. In addition, the half-maximal inhibitory concentration (IC50) (HEPG2TOX_HILL_SLOPE 2.24, HEPG2TOX_R_SQUARED 0.668, PBLUC_HILL_SLOPE 45.5, PBLUC_R_SQUARED 0.204, read-out: LUCIFERASE INFECTION ASSAY - IC50) amounted to 2.66 µM.
As to `Cn1cccc1C(=O)OCC(=O)NCc1cccs1`, the IC90 was above 10 µM. Also, under setting [1], the IC50 was above 10 µM.
`CN(C)c1cccc(CNc2nccc3nc(-c4ccncc4)[nH]c23)c1`: the 90% effect concentration (IC90) is above 10 µM. Further, the 50% inhibitory concentration (IC50) under setting [1] is above 10 µM.
As for `NC(=O)N/N=C/c1ccc(Cl)cc1`, the 90% effect concentration (IC90) was above 16.7 µM. Besides, the IC50 under setting [1] is above 16.7 µM.
With `COc1cc(Nc2ccn3ncc(-c4ccc(OC(F)(F)F)cc4)c3n2)cc(OC)c1OC`, the concentration for an effect of 90% (IC90) was found to be 5.74 µM. Under “PBLUC_HILL_SLOPE 5.07, PBLUC_R_SQUARED 0.236, read-out: LUCIFERASE INFECTION ASSAY - IC50”, the IC50 came to 3.72 µM.
For the compound `Cc1cccc(C2NC(=O)NC3=C2C(=O)N(CCc2ccccc2)C3)c1` (configuration not stated), the IC90 was above 10 µM. Also, the half-maximal inhibitory concentration (IC50) under setting [1] is above 10 µM.
`Cn1ccnc1SCC(=O)N1N=C2/C(=C/c3ccccc3)CCCC2C1c1ccccc1` (configuration not stated): the IC90 is above 10 µM. For the same compound, the IC50 (PBLUC_HILL_SLOPE 2.84, PBLUC_R_SQUARED 0.326, read-out: LUCIFERASE INFECTION ASSAY - IC50) is 8.34 µM.
For `COc1cc2c(cc1OC)C(c1cccc(C(F)(F)F)c1)CC(=O)N2` (configuration not stated), the 90% effect concentration (IC90) was above 9.39 µM. Besides, the 50% inhibitory concentration (IC50) under setting [1] is above 9.39 µM.

Values taken from ChEMBL document CHEMBL4483862, “Open-source discovery of chemical leads for next-generation chemoprotective antimalarials” (2018).
